Experimental data: patent publication US7576094B2, “Spiro derivatives as lipoxygenase inhibitors” (Eli Lilly and Company, priority 2004, dated 2009)

Biological target: T1, human recombinant 5-Lipoxygenase (Homo sapiens, UniProt P09917)
T1 sequence (P09917 1-674): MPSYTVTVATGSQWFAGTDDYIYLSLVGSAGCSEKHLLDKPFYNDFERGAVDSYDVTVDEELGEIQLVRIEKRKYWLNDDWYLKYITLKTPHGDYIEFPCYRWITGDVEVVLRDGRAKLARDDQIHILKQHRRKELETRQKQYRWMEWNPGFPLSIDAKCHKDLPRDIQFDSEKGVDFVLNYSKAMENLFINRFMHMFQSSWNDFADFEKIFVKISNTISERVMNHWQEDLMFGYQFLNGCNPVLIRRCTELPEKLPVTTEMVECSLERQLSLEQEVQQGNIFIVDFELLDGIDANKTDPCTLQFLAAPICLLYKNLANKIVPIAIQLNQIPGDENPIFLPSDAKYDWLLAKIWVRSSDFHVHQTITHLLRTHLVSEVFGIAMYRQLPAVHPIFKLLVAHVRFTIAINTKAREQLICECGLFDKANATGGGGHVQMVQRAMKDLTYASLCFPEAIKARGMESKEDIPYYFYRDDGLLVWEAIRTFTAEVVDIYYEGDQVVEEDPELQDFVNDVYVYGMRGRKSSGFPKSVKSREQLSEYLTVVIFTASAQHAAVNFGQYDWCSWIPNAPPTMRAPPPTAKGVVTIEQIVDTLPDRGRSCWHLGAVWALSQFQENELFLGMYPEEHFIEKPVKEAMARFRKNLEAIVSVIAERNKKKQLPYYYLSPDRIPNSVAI
Assay: 5-Lipoxygenase Enzyme Assay
Format: biochemical
Settings: 70 μM arachidonic acid, 10 minute incubation at room temperature, FOX reagent, absorbance at 620 nm; read-out: inhibition of 5-Lipoxygenase with an IC50
Excerpt: This procedure was used for measuring the enzymatic activity of human recombinant 5-Lipoxygenase using a colorimetric method based on the ferric oxidation of xylenol orange.
• 96 well flat bottom microfilter plates (VWR, Catalog # 62402-933 9295) • Lipoxygenase screening assay buffer (Cayman, Catalog # 760710) • Human recombinant 5-Lipoxygenase (Cayman, Catalog # 60402) • Arachidonic Acid (Sigma, Catalog # A3555) • Xylenol orange tetra sodium salt (Aldrich, Catalog # 227854) • Iron (II) sulfate heptahydrate (Sigma, Catalog # F7002) • Sulfuric acid (95-98%) [18 M] • Methanol Procedure
Human recombinant 5-Lipoxygenase (Cayman Cat # 60402) was used in this assay. The test compound and/or vehicle was added to 0.5 μL 5-Lipoxygenase in 50 mM Tris-HCl buffer, pH 7.4. The reaction was initiated by addition of 70 μM arachidonic acid in Tris-HCl buffer, pH 7.4, and terminated after a 10 minute incubation at room temperature by addition of FOX reagent (25 mM sulfuric acid, 100 μM xylenol orange, 100 μM iron (II) sulfate, methanol:water 9:1). The yellow color of acidified xylenol orange was converted to a blue color by the lipid hydroperoxide-mediated oxidation of Fe^2+ ions and the interaction of the resulting Fe^3+ ions with the dye. The complex was allowed to form during a 1 hour incubation at room temperature with shaking. Absorbance of the Fe^3+ complex was then measured at […] using a spectrophotometer.
Negative controls contained enzyme during the incubation step but substrate was not added until after the FOX reagent. Compounds were screened at 5 concentrations in triplicate starting at 10 μM

IC50 [nM] | Compound
< 300 | Cc1cc2c(c(C)c1O)CCC1(CCC1)N2Cc1ccc(Cl)cc1 [1′-(4-chlorobenzyl)-5′,7′-dimethyl-3′,4′-dihydro-1′H-spiro[cyclobutane-1,2′-quinolin]-6′-ol]
< 300 | Cc1c(C)c2c(c(C)c1O)C(O)C1(CCC1)CN2c1ccc(Cl)cc1 (stereo not drawn) [1′-(4-chlorophenyl)-5′,7′,8′-trimethyl-2′,4′-dihydro-1′H-spiro[cyclobutane-1,3′-quinoline]-4′,6′-diol]
< 300 | Cc1c(O)cc2c(c1C)N(c1ccc(O)cc1)CC1(CCC1)C2 [1′-(4-hydroxyphenyl)-7′,8′-dimethyl-2′,4′-dihydro-1′H-spiro[cyclobutane-1,3′-quinolin]-6′-ol]
< 300 | Cc1c(C)c2c(c(C)c1O)C(CN)=CC1(CCC1)O2 [4-(aminomethyl)-5,7,8-trimethylspiro[chromene-2,1′-cyclobutan]-6-ol]
< 300 | CCONC1CC2(CCC2)Oc2cc(CC)c(O)c(CC)c21 (stereo not drawn) [4-(ethoxyamino)-5,7-diethyl-3,4-dihydrospiro[chromene-2,1′-cyclobutan]-6-ol]
< 300 | CCONC1CC2(CCC2)Oc2c(C)c(C)c(O)c(CC)c21 (stereo not drawn) [4-(ethoxyamino)-5-ethyl-7,8-dimethyl-3,4-dihydrospiro[chromene-2,1′-cyclobutan]-6-ol]
< 300 | CONC1CC2(CCC2)Oc2c(C)c(C)c(O)c(C)c21 (stereo not drawn) [4-(methoxyamino)-5,7,8-trimethyl-3,4-dihydrospiro[chromene-2,1′-cyclobutan]-6-ol]
< 300 | CON(C)C1CC2(CCC2)Oc2cc(C)c(O)c(C)c21 (stereo not drawn) [4-[methoxy(methyl)amino]-5,7-dimethyl-3,4-dihydrospiro[chromene-2,1′-cyclobutan]-6-ol]
< 300 | Cc1cc2c(c(C)c1O)C(OC(C)C)CC1(CCC1)O2 (stereo not drawn) [4-isopropoxy-5,7-dimethyl-3,4-dihydrospiro[chromene-2,1′-cyclobutan]-6-ol]
< 300 | Cc1c(C)c2c(c(C)c1OC(=O)n1ccnc1)CCC1(CCC1)O2 [5,7,8-trimethyl-3,4-dihydrospiro[chromene-2,1′-cyclobutan]-6-yl 1H-imidazole-1-carboxylate]
< 300 | Cc1c(C)c2c(c(C)c1OC(=O)CN(C)C)CCC1(CCC1)O2 [5,7,8-trimethyl-3,4-dihydrospiro[chromene-2,1′-cyclobutan]-6-yl (dimethylamino)acetate]
< 300 | CCc1cc2c(c(CC)c1O)C(O)C1(CCC1)CO2 (stereo not drawn) [5,7-diethylspiro[chroman-3,1′-cyclobutane]-4,6-diol]
< 300 | CONCc1c2c(c(C(C)C)c(O)c1C(C)C)CCC1(CCC1)O2 [5,7-diisopropyl-8-[(methoxyamino)methyl] 3,4-dihydrospiro[chromene-2,1′-cyclobutan]-6-ol]
< 300 | CCc1c(O)c(C)c(C)c2c1C(NOC)CC1(CCC1)O2 (stereo not drawn) [5-ethyl-4-(methoxyamino)-7,8-dimethyl-3,4-dihydrospiro[chromene-2,1′-cyclobutan]-6-ol]
< 300 | Cc1c(C)c2c(c(C)c1OC(=O)CN(C)C)CCC1(CCC1)S2 [5′,7′,8′-trimethyl-3′,4′-dihydrospiro[cyclobutane-1,2′-thiochromen]-6′-yl (dimethylamino)acetate]
< 300 | CC(C)c1c(O)c(C(C)C)c2c(c1C=O)OC1(CCC1)CC2 [6-hydroxy-5,7-diisopropyl-3,4-dihydrospiro[chromene-2,1′-cyclobutane]-8-carbaldehyde]
< 300 | CO/N=C1\CC2(CCC2)Oc2cc(C)c(O)c(C)c21 [6-hydroxy-5,7-dimethylspiro[chromene-2,1′-cyclobutan]-4(3H)-one O-methyloxime]
< 300 | Cc1c2c(c(C)c(Cl)c1OC(=O)c1cccnc1)OC1(CCC1)CC2 [7-chloro-5,8-dimethyl-3,4-dihydrospiro[chromene-2,1′-cyclobutan]-6-yl nicotinate]
< 300 | Cc1c(O)cc2c(c1C)N(c1ccc(S(C)(=O)=O)cc1)CC1(CCC1)C2 [7′,8′-dimethyl-1′-(4-(methylsulfonyl)phenyl)-2′,4′-dihydro-1′H-spiro[cyclobutane-1,3′-quinolin]-6′-ol]
< 300 | Cc1c(O)cc2c(c1C)N(c1ccc(N3CCNCC3)nc1)CC1(CCC1)C2 [7′,8′-dimethyl-1′-(6-(piperazin-1-yl)pyridin-3-yl)-2′,4′-dihydro-1′H-spiro[cyclobutane-1,3′-quinolin]-6′-ol]
< 300 | COCc1c(C)c(O)c(C)c2c1OC1(CCC1)CC2 [8-(methoxymethyl)-5,7-dimethyl-3,4-dihydrospiro[chromene-2,1′-cyclobutan]-6-ol]
< 300 | Cc1c(O)cc(C(C)C)c2c1CCC1(CCC1)O2 [8-isopropyl-5-methyl-3,4-dihydrospiro[chromene-2,1′-cyclobutan]-6-ol]
< 300 | CCO/N=C1\CC2(CCC2)Oc2cc(C)c(O)c(C)c21 [(4E)-6-hydroxy-5,7-dimethylspiro[chromene-2,1′-cyclobutan]-4(3H)-one O-ethyloxime]
< 300 | CCO/N=C1/CC2(CCC2)Oc2cc(C)c(O)c(C)c21 [(4Z)-6-hydroxy-5,7-dimethylspiro[chromene-2,1′-cyclobutan]-4(3H)-one O-ethyloxime]
< 300 | CCCc1ccc([S+](=O)([O-])NCCN2CC3(CCC3)Cc3cc(O)c(C)c(C)c32)cc1 [N-(2-(6′-hydroxy-7′,8′-dimethyl-2′,4′-dihydro-1′H-spiro[cyclobutane-1,3′-quinoline]-1′-yl)ethyl)-4-propylbenzenesulfonamide]
< 300 | CC(=O)NC1CC2(CCC2)Oc2c(C)c(C)c(O)c(C)c21 (stereo not drawn) [N-(6-hydroxy-5,7,8-trimethyl-3,4-dihydrospiro[chromene-2,1′-cyclobutan]-4-yl)acetamide]
< 300 | CCCC(=O)NC1CC2(CCC2)Oc2c(C)c(C)c(O)c(C)c21 (stereo not drawn) [N-(6-hydroxy-5,7,8-trimethyl-3,4-dihydrospiro[chromene-2,1′-cyclobutan]-4-yl)butanamide]
< 300 | COC(=O)CN1CC2(CC2)Cc2cc(O)c(C)c(C)c21 [methyl 2-(6′-hydroxy-7′,8′-dimethyl-2′,4′-dihydro-1′H-spiro[cyclopropane-1,3′-quinoline]-1′-yl)acetate]
< 300 | COC(=O)c1ccc(N2CC3(CCC3)Cc3cc(O)c(C)c(C)c32)cc1 [methyl 4-(6′-hydroxy-7′,8′-dimethyl-2′,4′-dihydro-1′H-spiro[cyclobutane-1,3′-quinoline]-1′-yl)benzoate]
< 300 | COC(=O)c1ccc(CN2c3cc(C)c(O)c(C)c3CCC23CCC3)cc1 [methyl 4-((6′-hydroxy-5′,7′-dimethyl-3′,4′-dihydro-1′H-spiro[cyclobutane-1,2′-quinoline]-1′-yl)methyl)benzoate]
